Values quoted from earlier work as cited in patent US10076471B2, “Antimicrobial denture” (University of Dammam, priority 2016, dated 2018).
≈ marks a conversion by molar mass, not a printed value.

Test system: Candida
Details: against Candida

For `COC1=CC(=O)c2ccccc2C1=O` [Lawsone methyl ether, 2-methoxy-1,4-napthoquinone], the minimal fungicidal concentration is given as 1.25 µg/mL (≈ 6.64 µM).
